In patent publication US20250228880A1, “REDOX-ACTIVE COMPOUNDS AND RELATED COMPOUNDS, COMPOSITIONS, METHODS AND SYSTEMS” (CALIFORNIA INSTITUTE OF TECHNOLOGY, priority 2008, published 2025):
Several values for one entry are separate records, joined by “and”; a condition that tells them apart may be missing. Equal entries are not always repeated. Entries after “also recorded” stand apart in the source; their conditions may differ. Where two headings read alike, the source gives them in different places.

What was measured:
[1] = literature values (footnotes a, c, d, e); oxidized form; cited from earlier work
[2] = test system: P. aeruginosa PA14 Δphz mutant; assay: Reduction by PA14 (colour change in survival control experiments without poised potential); assay type: cell-based, Pseudomonas aeruginosa; conditions: intracellular reduction by Δphz cells
[3] = Reduction potential E0' (cyclic voltammetry); assay type: physicochemical; conditions: measured in aqueous solution at pH 7 in this study (footnote b)
[4] = test system: P. aeruginosa PA14 Δphz mutant; assay: Anaerobic survival in bulk electrolysis bioreactor (viable cell counts, CFU); assay type: cell-based, Pseudomonas aeruginosa; conditions: for Support survival?: anaerobic survival of Δphz over 7 days, 10^9 cells/mL, 20 mM D-glucose, about 90 µM compound, electrode at +0.2 V vs. NHE, CFU on LB agar
Method: Microbiological methods. P. aeruginosa strain UCBPP-PA14 with deletions of two redundant phenazine biosynthetic operons phzA1-G1 and phzA2-G2, hereafter referred to as the Δphz mutant, was cultivated aerobically at 37° C. in Luria-Bertani (LB) broth (Fisher Scientific) to stationary phase. A washing procedure using centrifugation to collect cell pellets and vortexing to resuspend cell pellets in sterile PBS buffer (recipe) was repeated twice. For centrifugation, the cultures were split into 50 mL sterile centrifuge tubes and centrifuged for 8 minutes at 6000 g, at 4° C. After washing, cell culture was concentrated by resuspending pellets in PBS buffer with one-tenth of original cultural volume. Optical density of this culture was measured at 500 nm using Beckman Coulter D U 800 spectrophotometer. Dilution was performed to yield the OD reading below 0.8. The culture aliquots were then transferred into electrochemical cells with oxygen-free minimal salt medium (20 mM glucose as the carbon source) to serve as the cultures electrochemical studies (see next section for details).
Survival experiments in electrochemical setup. Electrochemical measurements were performed with a Gamry G- potentiostat. All experiments were conducted in an O2— and H2— free glovebox (MBraun) at 30° C. and in the dark. All measured potentials were referenced to a Ag/AgCl electrode (RE-5B, BASi). Reported potentials were referenced to the Normal Hydrogen Electrode NHE (V vs. NHE=V vs. Ag/AgCl+207 mV) to permit comparisons with other studies. A graphite rod (6.15 mm dia ×152 mm long, Alfa Aesar) was used as the working electrode, and the operating surface area was 6 cm^2. The counter electrode was made from a platinum mesh (Alfa Aesar) soldered to a copper wire. The working electrode was in a sample compartment together with the reference electrode. The counter electrode was in another compartment isolated from the working electrode. The two compartments were joined by a fritted glass junction. The controlled potential bulk electrolysis was set at 0 V vs. Ag/AgCl. This potential is mild enough to only oxidize reduced phenazines, but not other components in the cultural medium.
To test whether phenazine electron shuttling can help P. aeruginosa survive, 100 µM phenazine, 20 mM glucose, high or low initial cell densities in the range of 10^9 cells/mL or 10^7 cells/mL were added to the medium to give total 100 mL suspension in the compartment along with the working and reference electrodes, and the potential was applied at 0 V (vs. Ag/AgCl) for 7 days. Cell suspension aliquots were taken as a function of time for viable colony counts. Current and charge transferred were recorded continuously. Cultures without phenazine, or without the potential applied, or without both were served as the controls. To confirm that glucose is used as the carbon source in the case of survival, experiments with or without glucose addition were compared.
To investigate the effect of redox-active small molecules on anaerobic survival of redox active organisms, Applicants tested the effect of redox-active molecule in P. aeruginosa PA14. In particular, Applicants assembled bulk electrolysis-based glass bioreactors housed within an O2— and H2— free glovebox (MBraun) and controlled by a multichannel potentiostat (Gamry, Series G 300) outside the glovebox. Each bioreactor held a graphite rod working electrode (Alfa Aesar) with an operating surface area of 6 cm^2, a Ag/AgCl reference electrode (BASi, RE-5B) with a constant potential of +0.207 V vs. the normal hydrogen electrode (NHE), and about 100 mL MOPS culture medium [100 mM MOPS at pH 7.2, 93 mM NH4Cl, 43 mM NaCl, 2.2 mM KH2PO4, 1 mM MgSO4, […]](modified from ref. (Palmer, K. L., L. M. Mashburn, P. K. Singh, and M. Whiteley. 2005. Cystic fibrosis sputum supports growth and cues key aspects of Pseudomonas aeruginosa physiology. Journal of Bacteriology 187:5267-5277)). […]

[5] = test system: Pseudomonas aeruginosa PA14 phenazine null mutant; assay: Colony morphology assay; assay type: cell-based; conditions: pyocyanin added to the growth medium (50 μM HPLC-purified, 1% tryptone, 1% agar plates)
Method: In particular, in FIG. 8 is shown how the phenazine null mutant forms smooth colonies in the presence of exogenous phenazines. […] Image was taken after 5 days.
Colony morphology assay: colony morphology assay was performed with Pseudomonas aeruginosa and Streptomyces coelicolor as described herein below: a) Pseudomonas aeruginosa PA 14: Strains were grown in LB medium to late exponential phase, then 10 μl were spotted onto 1% agar plates containing 10 g/L Tryptone Broth, supplemented with […] Congo Red and […] Coomassie Blue as described previously (L. Friedman, R. Kolter, Mot Microbial 51, 675 (2004)). Plates were incubated at room temperature. Colonies were imaged using an Epson Perfection 2400 Photo Scanner at 600 dpi resolution, Nikon stereomicroscope or a digital microscope (Proscope). b) Streptomyces coelicolor A3(2): 10 µl of a spore suspension in water was spotted onto plates with R5-medium. Plates were incubated at room temperature for six days. Colonies were imaged using a Nikon stereomicroscope.

Row | SMILES | E^0′ (vs. NHE) [1] | Reduction by PA14? [2] | E^0′ (vs. NHE) [3] [mV] | Support survival? [4] | drop of viable cells ([4]; regardless of bioreactor experimental conditions, 7 days) | colony morphology of the phenazine null mutant [5] | survival vs. growth at low cell density ([4]; viable cells at 10^7 CFU/mL, data not shown) | drop of viable cells from the original CFU ([4]; without D-glucose, with PYO and the poised potential, by day 6) | Reduction by PA14? ([2]; listed as paraquat) | Support survival? ([4]; listed as paraquat)
1 | CN(C)c1ccc2nc3ccc(=[N+](C)C)cc-3sc2c1 [MB, Methylene blue] | +11 mV | reduced intracellularly and Yes | 0 | cannot support Δphz survival and No | 3 orders of magnitude |  |  |  |  | 
2 | C[n+]1c2ccccc2nc2c([O-])cccc21 [PYO, Pyocyanin] | −40^a mV | Yes |  | promote anaerobic survival and Yes |  | smooth compact colonies | supported only survival but not growth | 4 orders of magnitude |  | 
3 | O=C(O)Cc1cc(O)ccc1O [HMA, Homogentisic acid] |  |  |  | cannot support Δphz survival and No |  |  |  |  |  | 
4 | O=C1c2ccc(S(=O)(=O)O)cc2C(=O)c2ccc(S(=O)(=O)O)cc21 [2,6-AQDS] | −184^d mV | only a small portion of 2,6-AQDS was reduced; also recorded: Yes (very slowly) |  | No |  |  |  |  |  | 
5 | C[n+]1ccc(-c2cc[n+](C)cc2)cc1 [Paraquat] | −446 mV and −446^e mV | No |  | No |  |  |  |  | cannot be reduced by Δphz | cannot support anaerobic survival of Δphz
6 | O=C(O)c1cccc2nc3ccccc3nc12 [PCA, phenazine-1-carboxylic acid] | −114^a mV | Yes |  | promote anaerobic survival and Yes |  |  |  |  |  | 
7 | Oc1cccc2nc3ccccc3nc12 [1-OHPHZ, 1-hydroxyphenazine] | −174^a mV | Yes |  | promote anaerobic survival and Yes |  |  |  |  |  | 
